Active and inactive are the calls of the source. No cut-off for these calls is given here.
Experiments:
[1] = target: T1, Metabotropic glutamate receptor 7 (Homo sapiens, UniProt Q14831); test: (§1) Agonist activity at human mGluR7 expressed in CHO cells expressing CRE-Luc reporter gene assessed as reduction in forskolin-stimulated cAMP production preincubated for 15 mins followed by forskolin stimulation and measured after 5 hrs by luminescence based Steady glo assay; format: cell-based
[2] = target: T1, Metabotropic glutamate receptor 7; test: as §1, with “production by measuring maximum efficacy” for “production”, “assay relative to control” for “assay”; format: cell-based; settings: filed as agonist, time 315.0 min
[3] = target: T1, Metabotropic glutamate receptor 7; test: Desensitization at human mGluR7 expressed in CHO cells assessed as reduction in tool agonist response at 10 uM preincubated for 1 hrs followed by compound replacement with assay buffer and measured 1 hrs after tool agonist addition by CellKey impedance assay relative to control; format: cell-based; set-up: scale not given: the % may be the effect or the level left
[4] = target: Sodium-dependent noradrenaline transporter (Homo sapiens) (UniProt P23975); test: Binding affinity to human norepinephrine transporter at 10 uM
[5] = target: Histamine H1 receptor (Homo sapiens) (UniProt P35367); test: Binding affinity to human H1 receptor at 10 uM
[6] = target: T1, Metabotropic glutamate receptor 7; test: Agonist activity at human mGluR7 expressed in CHO cells assessed as change in extracellular impedance incubated for 40 mins by CellKey impedance assay; format: cell-based; settings: filed as agonist
[7] = target: Adrenergic receptor alpha-1 (Rattus norvegicus) (UniProt P15823+P23944+P43140); test: Binding affinity to rat alpha 1 adrenergic receptor at 10 uM; format: protein assay
[8] = target: T1, Metabotropic glutamate receptor 7; test: Agonist activity at human mGluR7b expressed in CHO cells assessed as inhibition of forskolin-stimulated cAMP accumulation; format: cell-based
[9] = target: T1, Metabotropic glutamate receptor 7; test: Allosteric agonist activity at mGluR7 (unknown origin) assessed as reduction in forskolin-induced cAMP production by measuring fold change in EC50 preincubated for 15 mins in the presence of LY341495 followed by forskolin stimulation and measured after 5 hrs by luminescence based steady glo assay; settings: filed as agonist, time 315.0 min
[10] = Stability in rat liver microsomes assessed as intrinsic clearance preincubated for 60 mins followed by NADPH addition and measured upto 60 mins by LC-MS/MS analysis; format: ADME, Microsome; settings: time < 120 min, read-out: CLH
[11] = Stability in human liver microsomes assessed as intrinsic clearance preincubated for 60 mins followed by NADPH addition and measured upto 60 mins by LC-MS/MS analysis; format: ADME, Microsome; settings: time < 120 min, read-out: CLH
[12] = target: Metabotropic glutamate receptor 8 (Homo sapiens) (UniProt O00222); test: Agonist activity at human mGluR8 expressed in CHO cells assessed as reduction in forskolin-induced cAMP production incubated for 1 hrs by HTRF analysis; format: cell-based
Chain of Metabotropic glutamate receptor 8 (Homo sapiens) (O00222 whole entry): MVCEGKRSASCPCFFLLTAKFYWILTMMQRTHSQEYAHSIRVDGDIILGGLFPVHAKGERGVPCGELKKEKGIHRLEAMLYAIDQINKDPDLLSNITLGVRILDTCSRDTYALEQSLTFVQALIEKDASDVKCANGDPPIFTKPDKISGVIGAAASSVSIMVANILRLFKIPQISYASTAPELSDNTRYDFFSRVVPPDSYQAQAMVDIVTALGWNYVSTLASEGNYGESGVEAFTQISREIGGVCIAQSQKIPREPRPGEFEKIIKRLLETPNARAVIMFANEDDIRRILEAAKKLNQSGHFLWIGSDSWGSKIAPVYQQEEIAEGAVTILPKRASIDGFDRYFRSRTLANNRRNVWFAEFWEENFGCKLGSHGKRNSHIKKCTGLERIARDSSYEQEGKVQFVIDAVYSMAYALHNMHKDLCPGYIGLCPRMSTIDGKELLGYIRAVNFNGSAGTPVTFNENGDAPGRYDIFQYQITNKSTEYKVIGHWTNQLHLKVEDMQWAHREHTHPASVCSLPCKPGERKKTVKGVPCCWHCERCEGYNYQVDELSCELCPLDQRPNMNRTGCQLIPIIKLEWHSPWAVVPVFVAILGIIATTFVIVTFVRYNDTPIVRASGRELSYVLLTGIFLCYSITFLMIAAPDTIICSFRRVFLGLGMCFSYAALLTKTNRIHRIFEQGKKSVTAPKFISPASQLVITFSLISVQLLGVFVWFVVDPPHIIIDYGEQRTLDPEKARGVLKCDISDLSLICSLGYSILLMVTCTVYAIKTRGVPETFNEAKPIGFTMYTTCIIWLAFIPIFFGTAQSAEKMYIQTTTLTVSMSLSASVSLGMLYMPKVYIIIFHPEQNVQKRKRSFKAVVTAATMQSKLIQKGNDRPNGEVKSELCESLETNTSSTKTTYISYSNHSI

[13] = target: T1, Metabotropic glutamate receptor 7; test: Desensitization at human mGluR7 expressed in CHO cells assessed as reduction in tool agonist response at EC80 concentration preincubated for 1 hrs followed by compound replacement with assay buffer and measured 1 hrs after tool agonist addition by CellKey impedance assay relative to control; format: cell-based
[14] = Stability in cryopreserved rat hepatocytes assessed as clearance measured for 120 mins by LC-MS/MS analysis; format: ADME, cell-based, Hepatocyte; settings: read-out: CLH
[15] = Unbound fraction in rat brain incubated for 6 hrs by LC-MS/MS based rapid equilibrium dialysis; format: ADME, tissue-based
[16] = target: Metabotropic glutamate receptor 5 (Homo sapiens) (UniProt P41594); test: Agonist activity at mGluR5 (unknown origin) at 1 to 10 uM by Galphaqi5 calcium flux assay; settings: dose 1-10 µM
Chain of Metabotropic glutamate receptor 5 (Homo sapiens) (P41594 21-1212 limits assumed): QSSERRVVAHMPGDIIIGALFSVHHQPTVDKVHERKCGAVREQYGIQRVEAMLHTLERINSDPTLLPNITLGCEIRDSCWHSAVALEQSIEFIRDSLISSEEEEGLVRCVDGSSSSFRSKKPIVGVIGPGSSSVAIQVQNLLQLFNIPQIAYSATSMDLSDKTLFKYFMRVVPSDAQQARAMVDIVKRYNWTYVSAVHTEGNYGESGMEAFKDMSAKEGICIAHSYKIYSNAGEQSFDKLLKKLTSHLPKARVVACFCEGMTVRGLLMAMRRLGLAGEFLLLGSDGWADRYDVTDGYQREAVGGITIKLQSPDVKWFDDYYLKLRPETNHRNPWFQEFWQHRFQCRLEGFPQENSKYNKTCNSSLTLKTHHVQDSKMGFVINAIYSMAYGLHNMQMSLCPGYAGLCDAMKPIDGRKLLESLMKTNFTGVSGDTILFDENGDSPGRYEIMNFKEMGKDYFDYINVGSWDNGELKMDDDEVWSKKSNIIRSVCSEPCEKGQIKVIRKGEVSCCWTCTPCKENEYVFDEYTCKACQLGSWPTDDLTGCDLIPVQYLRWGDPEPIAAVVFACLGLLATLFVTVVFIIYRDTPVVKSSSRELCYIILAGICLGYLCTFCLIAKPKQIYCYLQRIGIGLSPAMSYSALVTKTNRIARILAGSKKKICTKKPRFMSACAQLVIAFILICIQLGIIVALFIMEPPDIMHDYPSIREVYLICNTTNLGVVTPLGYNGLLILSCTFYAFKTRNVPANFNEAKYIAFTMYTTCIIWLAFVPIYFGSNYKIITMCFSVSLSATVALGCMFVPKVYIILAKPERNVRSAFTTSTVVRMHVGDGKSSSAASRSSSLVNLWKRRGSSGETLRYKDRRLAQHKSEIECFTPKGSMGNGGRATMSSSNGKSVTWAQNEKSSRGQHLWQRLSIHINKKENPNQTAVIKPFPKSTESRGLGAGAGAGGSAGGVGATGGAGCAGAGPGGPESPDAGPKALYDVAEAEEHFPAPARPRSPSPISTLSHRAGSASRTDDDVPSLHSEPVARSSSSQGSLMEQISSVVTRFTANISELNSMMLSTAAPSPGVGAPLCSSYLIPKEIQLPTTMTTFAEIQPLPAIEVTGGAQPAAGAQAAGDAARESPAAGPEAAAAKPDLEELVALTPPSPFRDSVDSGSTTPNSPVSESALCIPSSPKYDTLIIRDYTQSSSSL

[17] = system: Rattus norvegicus; test: In vivo agonist activity in alcohol preferring Marchigian-Sardinian rat assessed as reduction in alcohol self-administration at 3 mg/kg, po administered for 1 hrs relative to control; format: functional; set-up: scale not given: the % may be the effect or the level left
[18] = target: Metabotropic glutamate receptor 2 (Homo sapiens) (UniProt Q14416); test: Agonist activity at mGluR2 (unknown origin) at 1 to 10 uM by cAMP assay; settings: dose 1-10 µM
[19] = target: Metabotropic glutamate receptor 7 (Mus musculus, UniProt Q68ED2); test: Agonist activity at mouse mGluR7 expressed in CHO cells expressing CRE-Luc reporter gene assessed as reduction in forskolin-stimulated cAMP production preincubated for 15 mins followed by forskolin stimulation and measured after 5 hrs by luminescence based Steady glo assay; format: cell-based
Chain of Metabotropic glutamate receptor 7 (Mus musculus, UniProt Q68ED2) (Q68ED2 whole entry): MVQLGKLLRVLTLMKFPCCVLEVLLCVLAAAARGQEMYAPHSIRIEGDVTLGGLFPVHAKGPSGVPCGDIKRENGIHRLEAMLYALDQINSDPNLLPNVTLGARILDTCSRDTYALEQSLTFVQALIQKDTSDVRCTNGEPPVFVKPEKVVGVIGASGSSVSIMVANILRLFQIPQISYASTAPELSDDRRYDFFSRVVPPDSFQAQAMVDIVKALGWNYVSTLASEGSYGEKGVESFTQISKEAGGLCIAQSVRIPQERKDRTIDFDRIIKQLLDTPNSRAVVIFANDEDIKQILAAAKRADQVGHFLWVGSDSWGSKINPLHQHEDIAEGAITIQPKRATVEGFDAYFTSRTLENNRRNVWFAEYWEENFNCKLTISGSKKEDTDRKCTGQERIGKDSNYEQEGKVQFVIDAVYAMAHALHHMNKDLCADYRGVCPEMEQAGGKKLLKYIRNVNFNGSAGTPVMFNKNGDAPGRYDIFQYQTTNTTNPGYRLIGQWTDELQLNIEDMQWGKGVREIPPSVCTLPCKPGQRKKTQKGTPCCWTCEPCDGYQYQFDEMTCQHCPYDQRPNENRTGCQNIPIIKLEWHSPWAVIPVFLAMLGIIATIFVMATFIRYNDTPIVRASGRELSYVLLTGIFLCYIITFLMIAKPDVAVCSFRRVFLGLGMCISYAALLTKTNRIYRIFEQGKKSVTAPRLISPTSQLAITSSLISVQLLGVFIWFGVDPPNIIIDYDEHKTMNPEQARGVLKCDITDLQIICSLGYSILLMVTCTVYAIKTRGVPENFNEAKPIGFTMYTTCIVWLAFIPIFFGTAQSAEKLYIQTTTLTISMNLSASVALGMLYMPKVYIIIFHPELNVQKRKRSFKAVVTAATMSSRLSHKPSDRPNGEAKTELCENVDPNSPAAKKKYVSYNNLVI

[20] = target: Metabotropic glutamate receptor 4 (Homo sapiens) (UniProt Q14833); test: Agonist activity at human mGluR4 expressed in CHO cells assessed as reduction in forskolin-induced cAMP production incubated for 1 hrs by HTRF analysis; format: cell-based
Chain of Metabotropic glutamate receptor 4 (Homo sapiens) (Q14833 whole entry): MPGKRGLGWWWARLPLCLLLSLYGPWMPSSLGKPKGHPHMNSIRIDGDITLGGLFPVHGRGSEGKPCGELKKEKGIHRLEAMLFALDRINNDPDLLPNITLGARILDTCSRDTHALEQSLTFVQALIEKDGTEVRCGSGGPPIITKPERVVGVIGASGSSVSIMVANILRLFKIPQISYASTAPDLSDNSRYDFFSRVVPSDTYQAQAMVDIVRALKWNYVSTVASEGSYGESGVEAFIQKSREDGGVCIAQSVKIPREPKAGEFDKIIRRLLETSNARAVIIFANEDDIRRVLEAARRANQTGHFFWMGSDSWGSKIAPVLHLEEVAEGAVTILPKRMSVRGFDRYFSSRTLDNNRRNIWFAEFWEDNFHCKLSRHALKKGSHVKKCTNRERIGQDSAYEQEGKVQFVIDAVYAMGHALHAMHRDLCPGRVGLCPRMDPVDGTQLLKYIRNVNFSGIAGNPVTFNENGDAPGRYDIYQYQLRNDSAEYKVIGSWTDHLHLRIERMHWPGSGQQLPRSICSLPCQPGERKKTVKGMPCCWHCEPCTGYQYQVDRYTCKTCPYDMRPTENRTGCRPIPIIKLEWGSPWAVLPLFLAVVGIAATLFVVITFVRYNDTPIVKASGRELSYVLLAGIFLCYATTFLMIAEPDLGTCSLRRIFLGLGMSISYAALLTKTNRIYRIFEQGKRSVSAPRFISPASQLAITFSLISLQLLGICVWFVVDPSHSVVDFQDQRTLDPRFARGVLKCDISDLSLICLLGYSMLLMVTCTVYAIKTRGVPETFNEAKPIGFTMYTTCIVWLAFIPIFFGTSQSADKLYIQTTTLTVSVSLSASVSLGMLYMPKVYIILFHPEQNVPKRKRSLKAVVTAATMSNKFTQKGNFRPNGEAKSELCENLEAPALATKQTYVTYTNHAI

[21] = Ratio of unbound brain to plasma concentration in Sprague-Dawley rat at 3 mg/kg, po measured after 4 hrs by LC-MS/MS analysis; format: ADME, organism-based
[22] = target: Metabotropic glutamate receptor 6 (Homo sapiens) (UniProt O15303); test: Agonist activity at mGluR6 (unknown origin) at 1 to 10 uM by cAMP assay; settings: dose 1-10 µM
Chain of Metabotropic glutamate receptor 6 (Homo sapiens) (O15303 whole entry): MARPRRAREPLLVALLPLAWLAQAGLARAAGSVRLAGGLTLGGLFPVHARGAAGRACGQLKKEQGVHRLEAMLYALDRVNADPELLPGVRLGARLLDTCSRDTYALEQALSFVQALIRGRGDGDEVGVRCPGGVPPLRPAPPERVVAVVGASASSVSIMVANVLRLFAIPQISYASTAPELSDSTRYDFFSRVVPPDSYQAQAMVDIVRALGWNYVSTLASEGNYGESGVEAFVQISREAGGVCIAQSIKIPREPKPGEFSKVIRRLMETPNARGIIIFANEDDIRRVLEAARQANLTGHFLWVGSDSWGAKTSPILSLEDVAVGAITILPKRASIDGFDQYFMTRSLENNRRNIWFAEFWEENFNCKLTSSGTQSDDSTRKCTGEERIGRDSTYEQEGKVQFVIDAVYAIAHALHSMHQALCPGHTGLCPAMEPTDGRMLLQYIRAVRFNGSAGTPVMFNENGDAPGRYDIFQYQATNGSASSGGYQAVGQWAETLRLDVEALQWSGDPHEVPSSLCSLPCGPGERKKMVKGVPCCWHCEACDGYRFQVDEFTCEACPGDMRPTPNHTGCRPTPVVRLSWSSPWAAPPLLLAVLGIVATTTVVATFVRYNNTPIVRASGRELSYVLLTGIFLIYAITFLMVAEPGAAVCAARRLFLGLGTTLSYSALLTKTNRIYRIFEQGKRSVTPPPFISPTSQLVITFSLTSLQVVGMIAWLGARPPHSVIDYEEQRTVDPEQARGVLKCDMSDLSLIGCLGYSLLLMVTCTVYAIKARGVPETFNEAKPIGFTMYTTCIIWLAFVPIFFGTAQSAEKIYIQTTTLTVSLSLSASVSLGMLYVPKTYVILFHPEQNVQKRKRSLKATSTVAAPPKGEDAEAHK

[23] = system: Rattus norvegicus; test: In vivo agonist activity in alcohol preferring Marchigian-Sardinian rat assessed as reduction in alcohol self-administration by measuring number of response at 3 mg/kg, po administered for 1 hrs; format: functional
[24] = Tmax in Sprague-Dawley rat at 3 mg/kg, po measured after 24 hrs by LC-MS/MS analysis; format: ADME, organism-based; settings: in vivo
[25] = Cmax in Sprague-Dawley rat at 3 mg/kg, po measured after 24 hrs by LC-MS/MS analysis; format: ADME, organism-based; set-up: dose 3 mg/kg, time 24 hrs, route po; settings: in vivo
[26] = system: Rattus norvegicus; test: In vivo agonist activity in po dosed alcohol preferring Marchigian-Sardinian rat assessed as reduction in alcohol self-administration measured after 1 hrs; format: functional, organism-based; settings: dose 0.3-3 mg/kg
[27] = AUC(0 to infinity) in Sprague-Dawley rat at 3 mg/kg, po measured after 24 hrs by LC-MS/MS analysis; format: ADME, organism-based; set-up: time 24 hrs, dose 3 mg/kg, route po; settings: in vivo
[28] = Half-life in Sprague-Dawley rat at 3 mg/kg, po measured after 24 hrs by LC-MS/MS analysis; format: ADME, organism-based; settings: in vivo
[29] = Ratio of drug concentration in Sprague-Dawley rat brain to plasma at 3 mg/kg, po measured after 4 hrs by LC-MS/MS analysis; format: ADME, organism-based
[30] = Oral bioavailability in Sprague-Dawley rat at 3 mg/kg measured after 24 hrs by LC-MS/MS analysis; format: ADME, organism-based; settings: in vivo
[31] = Apparent permeability from apical to basolateral side in MDCK-MDR1 cells; format: ADME, cell-based, Canis lupus familiaris; settings: dog
[32] = Unbound fraction in rat plasma incubated for 6 hrs by LC-MS/MS based rapid equilibrium dialysis; format: ADME, cell-free
[33] = target: Metabotropic glutamate receptor 3 (Homo sapiens) (UniProt Q14832); test: Agonist activity at mGluR3 (unknown origin) at 1 to 10 uM by Galphaqi5 calcium flux assay; settings: dose 1-10 µM
[34] = target: Metabotropic glutamate receptor 1 (Homo sapiens) (UniProt Q13255); test: Agonist activity at mGluR1 (unknown origin) at 1 to 10 uM by Galphaqi5 calcium flux assay; settings: dose 1-10 µM
[35] = Efflux ratio of apparent permeability in MDCK-MDR1 cells; format: ADME, cell-based, Canis lupus familiaris; settings: dog
[36] = Volume of distribution at steady state in Sprague-Dawley rat at 0.5 mg/kg, iv measured after 24 hrs by LC-MS/MS analysis; format: ADME, organism-based; settings: in vivo
[37] = target: T1, Metabotropic glutamate receptor 7; test: (§2) Positive allosteric modulation of mGluR7 (unknown origin) assessed as change in forskolin-induced cAMP production by measuring reduction in maximum response preincubated with compound for 15 mins in the presence of LY341495 followed by forskolin stimulation and measured after 5 hrs by luminescence based steady glo assay; set-up: scale not given: the % may be the effect or the level left; settings: filed as positive allosteric modulator, time 315.0 min
[38] = target: T1, Metabotropic glutamate receptor 7; test: as §2, with “fold change” for “reduction”, “EC50 shift” for “maximum response”; settings: filed as positive allosteric modulator, time 315.0 min
[39] = target: T1, Metabotropic glutamate receptor 7; test: Competitive binding affinity to mGluR7 (unknown origin) assessed as rightward shift in forskolin-induced cAMP production level by measuring fold change preincubated for 15 mins in the presence of LY341495 followed by forskolin stimulation and measured after 5 hrs by luminescence based steady glo assay; settings: filed as agonist, time 315.0 min

T1 sequence (Q14831 whole entry): as the sequence (Q68ED2 whole entry) above, with G5R, V27A, T488S, P520A, N578D counted along it

C[C@@H](C(=O)NC1Cc2ccccc2C1)c1ccccc1
EC50 [1]: 1340 nM | Emax [2]: 69%

c1ccc(C(NCCNC(c2ccccc2)c2ccccc2)c2ccccc2)cc1
Activity [3]: 74% | Activity [4]: Active | Activity [5]: Active | Activity [6]: Active | Activity [7]: Active | EC50 [8]: 64 nM | fold change (FC) [9]: 2

C[C@H](C(=O)N[C@@H]1CCc2ccccc2[C@H]1S(C)(=O)=O)c1ccc(F)cc1
microsomal CLint [10]: 55 µL/min/mg | microsomal CLint [11]: 2 µL/min/mg | Emax [2]: 95%

C[C@H](C(=O)NC1Cc2ccccc2C1)c1ccc(F)cc1
EC50 [1]: 55 nM | Emax [2]: 96%

C[C@H](C(=O)N[C@H]1COc2ccccc2[C@@H]1S(C)(=O)=O)c1ccc(F)cc1
Activity [12]: inactive | Activity [13]: inactive | CLint scaled [14]: 145 mL/min/kg | Fu [15]: 0.227 | Activity [16]: inactive | Activity [17]: 25% | Activity [18]: inactive | EC50 [19]: 2 nM | Activity [20]: inactive | K(p,uu,brain) [21]: 0.45 | Activity [22]: inactive | Activity [23]: 40.9 | Tmax [24]: 0.67 h | Activity [6]: Active | Cmax [25]: 1240 nM | Activity [26]: Dose-Dependent Effect | AUC [27]: 1404 ng·h/mL | EC50 [1]: 7 nM | t1/2 [28]: 2.25 h | BPR [29]: 0.56 | F [30]: 24% | Papp [31]: 16.2 ×10⁻⁶ cm/s | Fu [32]: 0.283 | Emax [2]: 97% | Activity [33]: inactive | Activity [34]: inactive | Ratio [35]: 0.5 | Vdss [36]: 1.49 L/kg | fold change (FC) [9]: 2

O=C(Nc1ccc(Oc2ccc(Cl)cn2)c(Cl)c1)c1ccccn1
Activity [37]: 43% | fold change (FC) [38]: 2

C[C@H](C(=O)NC1Cc2ccccc2C1)c1ccccc1
EC50 [1]: 113 nM | Emax [2]: 95%

N[C@@H](CCP(=O)(O)O)C(=O)O
fold change (FC) [39]: 13

N[C@@H](CCC(=O)O)C(=O)O
Activity [6]: Active

O=C(Cc1ccc(Cl)cc1)NC1Cc2ccccc2C1
EC50 [1]: 156 nM | Emax [2]: 71%

CNC[C@@H](OCC(=O)N1CCCc2ccccc21)c1ccccc1
EC50 [8]: 110 nM
